# How the values were obtained:
# [1] = system: surinam grass; experiment: Test B pre/postemergence surinam grass; assay type: in vivo, Brachiaria decumbens
# Summary of the method: (§1)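 Herbicidal effect was estimated by eye on a ten-point control scale after plants spent twelve to sixteen days in a greenhouse following soil or foliar treatment. Foliar sprays targeted plants at one to four leaves; all doses were formulated in a non-phytotoxic solvent with surfactant.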
# [2] = system: cocklebur; experiment: Test B pre/postemergence cocklebur; assay type: in vivo, Xanthium strumarium
# Summary of the method: as §1
# [3] = system: corn; experiment: Test B pre/postemergence corn; assay type: in vivo, Zea mays
# Summary of the method: as §1
# [4] = system: crabgrass; experiment: Test B pre/postemergence crabgrass; assay type: in vivo, Digitaria sanguinalis
# Summary of the method: as §1
# [5] = system: giant foxtail; experiment: Test B pre/postemergence giant foxtail; assay type: in vivo, Setaria faberii
# Summary of the method: as §1
# [6] = system: morningglory; experiment: Test B pre/postemergence morningglory; assay type: in vivo, Ipomoea hederacea
# Summary of the method: as §1
# [7] = system: pigweed; experiment: Test B pre/postemergence pigweed; assay type: in vivo, Amaranthus retroflexus; conditions: for Plant response rating, Redroot pigweed: Postemergence
# Summary of the method: as §1
# [8] = system: rape; experiment: Test B pre/postemergence rape; assay type: in vivo, Brassica napus
# Summary of the method: as §1
# [9] = system: soybean; experiment: Test B pre/postemergence soybean; assay type: in vivo, Glycine max; conditions: for Plant response rating, Soybean: Postemergence
# Summary of the method: as §1
# [10] = system: sugar beet; experiment: Test B pre/postemergence sugar beet; assay type: in vivo, Beta vulgaris; conditions: for Plant response rating, Sugarbeets: Postemergence
# Summary of the method: as §1
# [11] = system: wild oat; experiment: Test B pre/postemergence wild oat; assay type: in vivo, Avena fatua; conditions: for Plant response rating, Wild oats: Postemergence
# Summary of the method: as §1
# [12] = system: purple nutsedge; experiment: Test B pre/postemergence purple nutsedge; assay type: in vivo, Cyperus rotundus
# Summary of the method: as §1
# [13] = system: rice; experiment: Test B flood test rice; assay type: in vivo, Oryza sativa
# Summary of the method: (§2)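 Flood test on plants grown to the 2-leaf stage; treated plants kept in greenhouse twelve to sixteen days, then visually rated against controls on a 0 (no effect) to 10 (complete control) scale.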
# [14] = system: smallflower flatsedge; experiment: Test B flood test smallflower flatsedge; assay type: in vivo, Cyperus difformis
# Summary of the method: as §2
# [15] = system: duck salad; experiment: Test B flood test duck salad; assay type: in vivo, Heteranthera limosa
# Summary of the method: as §2
# [16] = system: bamyardgrass; experiment: Test B flood test barnyardgrass; assay type: in vivo, Echinochloa crus-galli
# Summary of the method: as §2
# [17] = Postemergence, Rate 62 g/ha, scale of 0 to 10, 0 is no effect, 10 is complete control
# [18] = Postemergence, Rate 125 g/ha, scale 0 to 10, 0 is no effect, 10 is complete control
# [19] = Postemergence, Rate 500 g/ha, scale of 0 to 10 where 0 is no effect and 10 is complete control
# [20] = Preemergence, Rate 62 g/ha, scale 0 to 10 (0 no effect, 10 complete control)
# [21] = Preemergence, Rate 125 g/ha, scale 0 to 10, 0 is no effect, 10 is complete control
# [22] = Preemergence, Rate 500 g/ha, scale of 0 to 10 where 0 is no effect and 10 is complete control
# [23] = Rate 250 g/ha, Postemergence, scale of 0 to 10 where 0 is no effect and 10 is complete control
# [24] = Rate 500 g/ha, scale of 0 to 10 where 0 is no effect and 10 is complete control
# [25] = Rate 250 g/ha, scale of 0 to 10 where 0 is no effect and 10 is complete control
# [26] = Rate 62 g/ha, flood test species, Pre-emergence, visual evaluation after twelve to sixteen days
# [27] = Rate 125 g/ha, under heading Pre-emergence, flood test species, visual evaluation after twelve to sixteen days
# [28] = Rate 250 g/ha, Pre-emergence (flood test species), scale 0 to 10, 0 is no effect, 10 is complete control
# [29] = Rate 500 g/ha, Pre-emergence section of Table B, 0 to 10 scale (0 no effect, 10 complete control)
smiles,measurement,setting,value
CC(C)N(C(=O)n1oc(=O)n(CCc2ccccc2)c1=O)c1ccccc1 [Compound 567],B. signalgrass plant response rating,[1]; [17],0
same,B. signalgrass plant response rating,[1]; [18],0
same,"Plant response rating, B. signalgrass",[1]; [19],0
same,B. signalgrass plant response rating,[1]; [20],0
same,B. signalgrass plant response rating,[1]; [21],0
same,"B. signalgrass plant response rating (0 to 10 scale, 0 is no effect, 10 is complete control)","[1]; Preemergence, Rate 250 g/ha",2
same,B. signalgrass plant response rating,[1]; [22],9
same,"Plant response rating, B. signalgrass",[1]; [23],0
same,Cocklebur plant response rating,[2]; [17],0
same,Cocklebur plant response rating,[2]; [18],0
same,"Plant response rating, Cocklebur",[2]; [19],2
same,Cocklebur plant response rating,[2]; [20],0
same,Cocklebur plant response rating,[2]; [21],0
same,Cocklebur plant response rating (0 to 10 scale),"[2]; Preemergence, Rate 250 g/ha",0
same,Cocklebur plant response rating,[2]; [22],0
same,"Plant response rating, Cocklebur",[2]; [23],0
same,Corn plant response rating,[3]; [17],0
same,Corn plant response rating,[3]; [18],0
same,"Plant response rating, Corn",[3]; [19],0
same,Corn plant response rating,[3]; [20],0
same,Corn plant response rating,[3]; [21],0
same,Corn plant response rating (0 to 10 scale),"[3]; Preemergence, Rate 250 g/ha",0
same,Corn plant response rating,[3]; [22],5
same,"Plant response rating, Corn",[3]; [23],0
same,Crabgrass plant response rating,[4]; [17],3
same,Crabgrass plant response rating,[4]; [18],7
same,"Plant response rating, Crabgrass",[4]; [19],8
same,Crabgrass plant response rating,[4]; [20],0
same,Crabgrass plant response rating,[4]; [21],9
same,Crabgrass plant response rating (0 to 10 scale),"[4]; Preemergence, Rate 250 g/ha",9
same,Crabgrass plant response rating,[4]; [22],9
same,"Plant response rating, Crabgrass",[4]; [23],7
same,Giant foxtail plant response rating,[5]; [17],0
same,Giant foxtail plant response rating,[5]; [18],0
same,"Plant response rating, Giant foxtail",[5]; [19],0
same,Giant foxtail plant response rating,[5]; [20],3
same,Giant foxtail plant response rating,[5]; [21],9
same,Giant foxtail plant response rating (0 to 10 scale),"[5]; Preemergence, Rate 250 g/ha",10
same,Giant foxtail plant response rating,[5]; [22],9
same,"Plant response rating, Giant foxtail",[5]; [23],0
same,Morningglory plant response rating,[6]; [17],0
same,Morningglory plant response rating,[6]; [18],4
same,"Plant response rating, Morningglory",[6]; [19],10
same,Morningglory plant response rating,[6]; [20],0
same,Morningglory plant response rating,[6]; [21],0
same,Morningglory plant response rating (0 to 10 scale),"[6]; Preemergence, Rate 250 g/ha",0
same,Morningglory plant response rating,[6]; [22],0
same,"Plant response rating, Morningglory",[6]; [23],4
same,"Plant response rating, Redroot pigweed",[7]; [24],0
same,Redroot pigweed plant response rating,[7]; [20],0
same,Redroot pigweed plant response rating,[7]; [21],0
same,Redroot pigweed plant response rating (0 to 10 scale),"[7]; Preemergence, Rate 250 g/ha",8
same,Redroot pigweed plant response rating,[7]; [22],9
same,"Plant response rating, Redroot pigweed",[7]; [25],0
same,Rape plant response rating,[8]; [17],0
same,Rape plant response rating,[8]; [18],0
same,"Plant response rating, Rape",[8]; [19],0
same,Rape plant response rating,[8]; [20],0
same,Rape plant response rating,[8]; [21],0
same,Rape plant response rating (0 to 10 scale),"[8]; Preemergence, Rate 250 g/ha",0
same,Rape plant response rating,[8]; [22],0
same,"Plant response rating, Rape",[8]; [23],0
same,"Plant response rating, Soybean",[9]; [24],6
same,Soybean plant response rating,[9]; [20],0
same,Soybean plant response rating,[9]; [21],0
same,Soybean plant response rating (0 to 10 scale),"[9]; Preemergence, Rate 250 g/ha",0
same,Soybean plant response rating,[9]; [22],0
same,"Plant response rating, Soybean",[9]; [25],4
same,"Plant response rating, Sugarbeets",[10]; [24],0
same,Sugarbeets plant response rating,[10]; [20],0
same,Sugarbeets plant response rating,[10]; [21],0
same,Sugarbeets plant response rating (0 to 10 scale),"[10]; Preemergence, Rate 250 g/ha",0
same,Sugarbeets plant response rating,[10]; [22],2
same,"Plant response rating, Sugarbeets",[10]; [25],0
same,"Plant response rating, Wild oats",[11]; [24],0
same,Wild oats plant response rating,[11]; [20],0
same,Wild oats plant response rating,[11]; [21],0
same,Wild oats plant response rating (0 to 10 scale),"[11]; Preemergence, Rate 250 g/ha",0
same,Wild oats plant response rating,[11]; [22],0
same,"Plant response rating, Wild oats",[11]; [25],0
same,Nutsedge plant response rating,[12]; [17],4
same,"Plant response rating, Nutsedge",[12]; [19],0
same,Nutsedge plant response rating,[12]; [20],0
same,Nutsedge plant response rating,[12]; [21],0
same,Nutsedge plant response rating (0 to 10 scale),"[12]; Preemergence, Rate 250 g/ha",0
same,Nutsedge plant response rating,[12]; [22],0
same,"Plant response rating, Rice (0 to 10 scale, 0 is no effect, 10 is complete control)",[13]; [26],0
same,"Rice plant response rating (0 to 10 scale, 0 is no effect, 10 is complete control)",[13]; [27],0
same,Rice plant response rating,[13]; [28],0
same,Rice plant response rating,[13]; [29],0
same,"Plant response rating, S. Flatsedge (0 to 10 scale, 0 is no effect, 10 is complete control)",[14]; [26],0
same,"S. Flatsedge plant response rating (0 to 10 scale, 0 is no effect, 10 is complete control)",[14]; [27],0
same,S. Flatsedge plant response rating,[14]; [28],0
same,S. Flatsedge plant response rating,[14]; [29],0
same,"Plant response rating, Ducksalad (0 to 10 scale, 0 is no effect, 10 is complete control)",[15]; [26],0
same,"Ducksalad plant response rating (0 to 10 scale, 0 is no effect, 10 is complete control)",[15]; [27],0
same,Ducksalad plant response rating,[15]; [28],0
same,Ducksalad plant response rating,[15]; [29],0
same,"Plant response rating, Barnyardgrass (0 to 10 scale, 0 is no effect, 10 is complete control)",[16]; [26],0
same,"Barnyardgrass plant response rating (0 to 10 scale, 0 is no effect, 10 is complete control)",[16]; [27],0
same,Barnyardgrass plant response rating,[16]; [28],0
same,Barnyardgrass plant response rating,[16]; [29],0
